Laboratory results from US20260240812A1, “TREATMENT FOR AMYOTROPHIC LATERAL SCLEROSIS (ALS)” (Zydus Lifesciences Limited, priority 2023, published 2026).
“And” between values parts separate entries of the source, which are not always exact repeats. Identical values can stand only once.

Test system: patients with Amyotrophic Lateral Sclerosis (ALS)
Assay: Phase 2 placebo controlled, randomized, double blind 12-week study, ALSFRS-R total score
Format: in vivo, human
Excerpt: Efficacy, Safety, Tolerability, Pharmacokinetics and Pharmacodynamics of Formula (I) in Patients with Amyotrophic Lateral Sclerosis • Protocol Title: A phase 2, proof-of-concept, placebo controlled, randomized, double blind study of compound of formula (I) to evaluate the efficacy, safety, tolerability, pharmacokinetics and pharmacodynamics in patients with Amyotrophic Lateral Sclerosis (ALS). • Study design: A phase 2, proof-of-concept, placebo controlled, randomized, double blind, 12-week study of compound of formula (I) to evaluate the efficacy, safety, pharmacokinetics, and pharmacodynamics in patients with Amyotrophic Lateral Sclerosis (ALS). • Study population: Male or female patients aged between 18-80 years (both inclusive at screening) with diagnosis of Amyotrophic Lateral Sclerosis who meet eligibility criteria • Number of Patients: Approximately 24 patients (06 patients in each arm) are enrolled. • Duration of Patient Participation: 114±5 Days (Including 28 days of screening)
• To measure the efficacy of the treatment using the slope of progression with the revised Amyotrophic Lateral Sclerosis Functional Rating Scale (ALSFRS-R)
• Change from baseline in the ALSFRS-R total score [Time Frame: From baseline to Week 12] […]

## CN1CCC[C@]1(C)/C=C/S(=O)(=O)NC(=O)Nc1c2c(cc3c1CCC3)CCC2 [formula (I)]
Baseline to Week 12, one line per patient, arm not given
  Change from baseline in the ALSFRS-R total score: −8 points and −1 points and 4 points and 0 points and 1 points and −3 points
Over 12 weeks, ALS patients
  ALSFRS-R score, result in words: stable and improved ALSFRS-R score in some patients
